Measured values reported in ChEMBL document CHEMBL3885861, “Open TG-GATES”.

Species: Rattus norvegicus
Assay: Open TG-GATES - Regimen: Single
Format: toxicity, organism-based, Sprague-Dawley
Design: regimen Single, gender Male, age 6 weeks
Conditions: in vivo, po, 2 mg/kg, route gavage, dose level Middle; for APTT / Bas / Eos / Fbg / Hb / Ht / Lym / MCH / MCHC / MCV / Mono / Neu / PT / Plat / RBC / Ret / WBC: tissue Blood; for KIDNEY_L / KIDNEY_R / KIDNEY_TOTAL: tissue Kidney; for LIVER: tissue Liver; for A/G / ALP / ALT / AST / BUN / CRE / Ca / Cl / DBIL / GLC / IP / K / LDH / Na / PL / RALB / TBIL / TC / TG / TP / gamma-GTP: tissue Plasma

O=NN(CCCl)C(=O)NC1CCCCC1 [LOMUSTINE]
TERMINAL_BW (3 h): 208.7 g | APTT (3 h): 16.4 s | Bas (3 h): 0% | Eos (3 h): 0.4% | Fbg (3 h): 227.8 mg/dL | Hb (3 h): 12.8 g/dL | Ht (3 h): 38.3% | Lym (3 h): 81.8% | MCH (3 h): 22.5 pg | MCHC (3 h): 33.4% | MCV (3 h): 67.4 fL | Mono (3 h): 7.2% | Neu (3 h): 10.2% | PT (3 h): 11.6 s | Plat (3 h): 102.8 x10_4/uL | RBC (3 h): 568.2 x10_4/ul | Ret (3 h): 9.5% | WBC (3 h): 127.7 x10_2/uL | KIDNEY_L (3 h): 0.9 g | KIDNEY_R (3 h): 1 g | KIDNEY_TOTAL (3 h): 1.9 g | LIVER (3 h): 10 g | A/G (3 h): 1.8 | ALP (3 h): 890.2 IU/L | ALT (3 h): 35.6 IU/L | AST (3 h): 70.8 IU/L | BUN (3 h): 14.2 mg/dL | CRE (3 h): 0.5 mg/dL | Ca (3 h): 11.4 mg/dL | Cl (3 h): 104.8 meq/L | DBIL (3 h): 0.052 mg/dL | GLC (3 h): 187.6 mg/dL | IP (3 h): 9.9 mg/dL | K (3 h): 4.6 meq/L | LDH (3 h): 104.6 IU/L | Na (3 h): 139.4 meq/L | PL (3 h): 127.4 mg/dL | RALB (3 h): 3.5 g/dL | TBIL (3 h): 0.3 mg/dL | TC (3 h): 75.8 mg/dL | TG (3 h): 41.4 mg/dL | TP (3 h): 5.5 g/dL | gamma-GTP (3 h): 1.4 IU/L | TERMINAL_BW (6 h): 201.7 g | APTT (6 h): 16.8 s | Bas (6 h): 0% | Eos (6 h): 0.2% | Fbg (6 h): 217.4 mg/dL | Hb (6 h): 13.5 g/dL | Ht (6 h): 40.4% | Lym (6 h): 84.2% | MCH (6 h): 21.9 pg | MCHC (6 h): 33.4% | MCV (6 h): 65.6 fL | Mono (6 h): 4.2% | Neu (6 h): 11.4% | PT (6 h): 12.2 s | Plat (6 h): 103.8 x10_4/uL | RBC (6 h): 616.2 x10_4/ul | Ret (6 h): 9.4% | WBC (6 h): 137.8 x10_2/uL | KIDNEY_L (6 h): 1 g | KIDNEY_R (6 h): 1 g | KIDNEY_TOTAL (6 h): 1.9 g | LIVER (6 h): 8.7 g | A/G (6 h): 1.9 | ALP (6 h): 941.6 IU/L | ALT (6 h): 33.6 IU/L | AST (6 h): 66.8 IU/L | BUN (6 h): 11.6 mg/dL | CRE (6 h): 0.5 mg/dL | Ca (6 h): 11 mg/dL | Cl (6 h): 104.2 meq/L | DBIL (6 h): 0.02 mg/dL | GLC (6 h): 187.6 mg/dL | IP (6 h): 10.8 mg/dL | K (6 h): 5 meq/L | LDH (6 h): 80.8 IU/L | Na (6 h): 141.2 meq/L | PL (6 h): 140 mg/dL | RALB (6 h): 3.5 g/dL | TBIL (6 h): 0.3 mg/dL | TC (6 h): 79.6 mg/dL | TG (6 h): 49.2 mg/dL | TP (6 h): 5.5 g/dL | gamma-GTP (6 h): 1.8 IU/L | TERMINAL_BW (9 h): 198 g | APTT (9 h): 17 s | Bas (9 h): 0% | Eos (9 h): 0.8% | Fbg (9 h): 226 mg/dL | Hb (9 h): 13.1 g/dL | Ht (9 h): 40.1% | Lym (9 h): 78.6% | MCH (9 h): 21.4 pg | MCHC (9 h): 32.7% | MCV (9 h): 65.6 fL | Mono (9 h): 6.2% | Neu (9 h): 14.6% | PT (9 h): 12.2 s | Plat (9 h): 103.3 x10_4/uL | RBC (9 h): 611.2 x10_4/ul | Ret (9 h): 8.8% | WBC (9 h): 71.6 x10_2/uL | KIDNEY_L (9 h): 0.9 g | KIDNEY_R (9 h): 0.9 g | KIDNEY_TOTAL (9 h): 1.8 g | LIVER (9 h): 8.4 g | A/G (9 h): 2.3 | ALP (9 h): 731 IU/L | ALT (9 h): 28.6 IU/L | AST (9 h): 67.6 IU/L | BUN (9 h): 11 mg/dL | CRE (9 h): 0.5 mg/dL | Ca (9 h): 10.7 mg/dL | Cl (9 h): 105.4 meq/L | DBIL (9 h): 0.024 mg/dL | GLC (9 h): 191 mg/dL | IP (9 h): 10.8 mg/dL | K (9 h): 5 meq/L | LDH (9 h): 93.8 IU/L | Na (9 h): 139.4 meq/L | PL (9 h): 136.2 mg/dL | RALB (9 h): 3.9 g/dL | TBIL (9 h): 0.3 mg/dL | TC (9 h): 81.6 mg/dL | TG (9 h): 30.8 mg/dL | TP (9 h): 5.5 g/dL | gamma-GTP (9 h): 1.8 IU/L | TERMINAL_BW (24 h): 218.8 g | APTT (24 h): 16.9 s | Bas (24 h): 0% | Eos (24 h): 0.4% | Fbg (24 h): 207.4 mg/dL | Hb (24 h): 12.8 g/dL | Ht (24 h): 38.5% | Lym (24 h): 80.2% | MCH (24 h): 22.3 pg | MCHC (24 h): 33.3% | MCV (24 h): 67.1 fL | Mono (24 h): 7% | Neu (24 h): 12.6% | PT (24 h): 12.1 s | Plat (24 h): 96.4 x10_4/uL | RBC (24 h): 574.2 x10_4/ul | Ret (24 h): 9.1% | WBC (24 h): 121.6 x10_2/uL | KIDNEY_L (24 h): 1 g | KIDNEY_R (24 h): 1 g | KIDNEY_TOTAL (24 h): 2 g | LIVER (24 h): 11.1 g | A/G (24 h): 2.3 | ALP (24 h): 839.8 IU/L | ALT (24 h): 38.8 IU/L | AST (24 h): 62.4 IU/L | BUN (24 h): 16.8 mg/dL | CRE (24 h): 0.5 mg/dL | Ca (24 h): 11.3 mg/dL | Cl (24 h): 104.4 meq/L | DBIL (24 h): 0.038 mg/dL | GLC (24 h): 195.8 mg/dL | IP (24 h): 8.7 mg/dL | K (24 h): 4.8 meq/L | LDH (24 h): 87.4 IU/L | Na (24 h): 137.8 meq/L | PL (24 h): 157.2 mg/dL | RALB (24 h): 4 g/dL | TBIL (24 h): 0.3 mg/dL | TC (24 h): 86.8 mg/dL | TG (24 h): 80.6 mg/dL | TP (24 h): 5.7 g/dL | gamma-GTP (24 h): 1.4 IU/L
